For one assay, the system named is C. albicans SC5314. Description: MIC assay, fungus (CLSI broth microdilution). It counts as cell-based. The note with it: Candida albicans, RPMI 1640, 35 °C, 48 h, 0.5 x 10^3 to 2.5 x 10^3 CFU/mL, triplicate, three independent assays, read-out: Minimum Inhibitory Concentrations, C. albicans SC5314 (reference strain).
Another assay deals with S. aureus ATCC 25913. Put plainly: MIC assay, bacteria (CLSI broth microdilution). It counts as cell-based. Particulars: Staphylococcus aureus, ATCC25913, Gram positive, CA-MHB, 37 °C with shaking, 18 h, ~5 x10^5 CFU/mL, triplicate, three biological replicates, read-out: Minimum Inhibitory Concentrations, S. aureus ATCC 25913. (In general: In broth dilution the organism is exposed to a series of concentrations in liquid medium.)

A further assay concerns P. aeruginosa SVB-B9. Put plainly: MIC assay, bacteria (CLSI broth microdilution). Particulars: Gram negative, CA-MHB, 37 °C with shaking, 18 h, ~5 x10^5 CFU/mL, triplicate, three biological replicates. It is filed as cell-based, Pseudomonas aeruginosa.
For another assay, the system named is E. coli ATCC 25922. Description: MIC assay, bacteria (CLSI broth microdilution). It counts as cell-based, Escherichia coli. Particulars: Gram negative, CA-MHB, 37 °C with shaking, 18 h, ~5 x10^5 CFU/mL, triplicate, three biological replicates.

Values after ≈ are worked out from the molar mass of the structure shown.

Turning to `C[C@@H]1[C@H](O)[C@@H](C)/C=C/C=C/C=C/C=C/C=C/C=C/C=C/[C@H](O[C@@H]2O[C@H](C)[C@@H](O)[C@H](N)[C@@H]2O)C[C@@H]2O[C@](O)(C[C@@H](O)C[C@@H](O)[C@H](O)CC[C@@H](O)C[C@@H](O)CC(=O)O[C@H]1C)C[C@H](O)[C@H]2C(=O)O` [AMB, amphotericin B], the MIC in the assay with C. albicans SC5314 is 1 µM (≈ 0.924 µg/mL).

As to `CC1(C)S[C@@H]2[C@H](NC(=O)[C@H](N)c3ccc(O)cc3)C(=O)N2[C@H]1C(=O)O` [AMX, amoxicillin], in the assay with S. aureus ATCC 25913, the MIC stood at 2 µM (≈ 0.731 µg/mL).

Regarding polymyxin B [PMB], in the assay on P. aeruginosa SVB-B9, the “Minimum Inhibitory Concentrations, P. aeruginosa SVB-B9 (type strain)” value is 0.125 µM. In the assay on E. coli ATCC 25922, the “Minimum Inhibitory Concentrations, E. coli ATCC 25922” value is 0.125 µM.

The values are drawn from publication PMC11273936, “The Antimicrobial Peptide Capitellacin: Chemical Synthesis of Analogues to Probe the Role of Disulphide Bridges and Their Replacement with Vinyl Sulphides” (Antibiotics, 2024).
